The text below walks through data of US20240132511A1, “TREATMENTS OF PRADER-WILLI SYNDROME” (Neuren Pharmaceuticals Limited, priority 2021, published 2024).

Usually melting point stands for the temperature, or range, at which the solid turns liquid. Take `C[C@@]12CCCN1C(=O)C1(CCCCC1)NC2=O` [Cyclic cyclohexyl-G-2-MeP, (8aS)-Methyl-spiro[cyclohexane-1,3(4H)-tetrahydropyrrolo[1,2-a]pyrazine]-1,4(2H)-dione]: the melting point lay within 174 to 177 °C.

In the case of `C[C@@]12CCCN1C(=O)C1(CCCC1)NC2=O` [Cyclic cyclopentyl-G-2-MeP, (8aS)-Methyl-spiro[cyclopentane-1,3(4H)-tetrahydropyrrolo[1,2-a]pyrazine]-1,4(2H)-dione], the melting point was 160 to 163 °C.
